Measurements taken from patent US20110009435A1, “HETERO BICYCLIC CARBOXAMIDE DERIVATIVES AND THEIR PHARMACEUTICAL USE AND COMPOSITIONS” (Pfizer, Inc., priority 2007, published 2011).

Experiments:
Assay type in all cases: biochemical
Human recombinant MMP-14 = target: T1, Human recombinant MMP-14 (Homo sapiens, UniProt P50281); assay: In vitro MMP inhibition assay, MMP-14 catalytic domain (fluorogenic peptide substrate cleavage, Ki); settings: human MMP-14, catalytic domain (CD); read-out: hMMP Ki 14/CD
T1 construct: The MMP-14 cDNA may be used to express the catalytic domain enzyme in E. coli inclusion bodies; made in house
Experimental: (§1) Matrix Metalloproteinase inhibitor compounds were analyzed in in vitro MMP Inhibition assays to determine their ability to inhibit the MMP cleavage of peptide substrates. Inhibition constants (Ki) were calculated from the assayed compound-MMP interactions.
(§2) Human recombinant MMP-1, MMP-2, MMP-3, MMP-7, MMP-9, MMP-12, MMP-13, MMP-14 and MMP-15 were used in these assays. The enzymes are prepared following known laboratory procedures. Protocols for the preparation and use of these enzymes are available in the scientific literature. See, e.g., Enzyme Nomenclature (Academic Press, San Diego, Calif., 1992) and the citations therein. See also Frije et al., J. Biol. Chem., 26(24), 16766-73 (1994).
The MMP-14 cDNA may be used to express the catalytic domain enzyme in E. coli inclusion bodies. Then the enzyme is solubilized in urea, purified on a preparative […] reverse phase HPLC column, and refolded in the presence of zinc acetate and purified for use.
The fluorogenic, methoxycoumarin-containing polypeptide substrate MCA-ArgProLeuGlyLeuDpaAlaArgGluArgNH2 was used as the MMP substrate in the MMP inhibition assays for human recombinant MMP-1, MMP-2, MMP-7, MMP-9, MMP-12, MMP-13, MMP-14 and MMP-15. Here, “MCA” is 7-methoxycoumarin-4-yl acetyl and “Dpa” is 3-(2,4-dinitrophenyl)-L-2,3-di-aminopropionyl group. In the absence of MMP inhibitory activity, the substrate is cleaved at the Gly-Leu peptide bond. The cleavage separates the highly fluorogenic peptide from the 2,4-dinitrophenyl quencher, resulting in an increase of fluorescent intensity.
For the human MMP-1, MMP-2, MMP-7, MMP-9, MMP-12, MMP-13, MMP-14 and MMP-15 assays, dilutions of the inhibitors (or salts thereof) were prepared in 100% dimethyl sulfoxide (DMSO). The stock solutions were diluted in Buffer A (100 mM Tris-HCl, 100 mM NaCl, 10 mM CaCl2, 0.005% polyoxyethylene 23 lauryl ether, pH 7.5) to obtain solutions with different compound concentrations, i.e., assay solutions with different concentrations of the assayed MMP inhibitory compound in 1% DMSO. The experiment controls contained the same amount of Buffer A/DMSO as the assayed sample, but contained no inhibitor.
To determine Ki, the inhibitor samples are incubated at room temperature for 1 hr in the presence of enzyme and then 4 μM of appropriate MMP substrate was added, and samples were analyzed on a Tecan SpectraFlour Plus plate reader. The excitation wavelength is 330 nm, and the emission (fluorescence) wavelength is 420 nm. In the absence of MMP inhibitory activity, the substrate is cleaved at the Gly-Leu bond resulting in an increase of relative fluorescence. Inhibition is observed as a reduced rate of increase in relative fluorescence.
The inhibitors are analyzed using a single low enzyme concentration with a single substrate concentration fixed at or below the Km. This protocol is a modification of method by Knight et al., FEBS Lett., 296(3), 263-266 (1992). Apparent inhibitory constants are determined by non-linear regression of reaction velocity as a function of inhibitor and enzyme concentration using Morrison's equation, as described by Kuzmic, Anal. Biochem. 286, 45-50 (2000). Modifications were made in the non-linear regression method to allow a common control reaction rate and effective enzyme concentration to be shared between all dose-response relationships on a given assay plate. […]

Human recombinant MMP-9 = target: T2, Human recombinant MMP-9 (Homo sapiens, UniProt P14780); assay: In vitro MMP inhibition assay, MMP-9 (fluorogenic peptide substrate cleavage, Ki); settings: human MMP-9, full length (FL); read-out: hMMP Ki 09/FL
T2 construct: made in house; host or cells: MMP-9-transfected HT1080 cells
T2 sequence (P14780 107-707 limits assumed): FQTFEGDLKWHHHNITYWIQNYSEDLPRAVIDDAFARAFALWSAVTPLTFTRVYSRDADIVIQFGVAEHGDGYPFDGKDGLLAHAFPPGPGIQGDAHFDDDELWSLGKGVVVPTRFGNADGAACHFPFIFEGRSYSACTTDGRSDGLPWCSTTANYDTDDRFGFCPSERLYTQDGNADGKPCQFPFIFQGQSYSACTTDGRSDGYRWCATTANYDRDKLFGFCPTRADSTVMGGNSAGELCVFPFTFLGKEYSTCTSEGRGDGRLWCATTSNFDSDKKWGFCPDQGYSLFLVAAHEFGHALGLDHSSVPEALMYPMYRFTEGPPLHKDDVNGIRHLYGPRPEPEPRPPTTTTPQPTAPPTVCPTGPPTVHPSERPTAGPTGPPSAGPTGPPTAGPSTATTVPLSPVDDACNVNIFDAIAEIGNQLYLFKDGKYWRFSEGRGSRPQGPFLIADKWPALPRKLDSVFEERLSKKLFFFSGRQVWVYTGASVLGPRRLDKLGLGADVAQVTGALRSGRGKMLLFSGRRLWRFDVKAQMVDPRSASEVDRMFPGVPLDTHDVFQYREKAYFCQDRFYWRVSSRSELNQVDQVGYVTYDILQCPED
Experimental: as §1, §2
(§3) The MMP-1 proenzyme may be purified from spent media of MMP-1-transfected HT-1080 cells and the protein purified on a zinc chelating column. The MMP-2 proenzyme may be purified by gelatin Sepharose chromatography from MMP-2-transfected p2AHT2 cells. […]
(§4) The inhibitors are analyzed using a single low enzyme concentration with a single substrate concentration fixed at or below the Km. […] Apparent inhibitory constants are determined by non-linear regression of reaction velocity as a function of inhibitor and enzyme concentration using Morrison's equation, as described by Kuzmic, Anal. Biochem. 286, 45-50 (2000). […]

Human recombinant MMP-2 = target: T3, Human recombinant MMP-2 (Homo sapiens, UniProt P08253); assay: In vitro MMP inhibition assay, MMP-2 (fluorogenic peptide substrate cleavage, Ki); settings: human MMP-2, full length (FL); read-out: hMMP Ki 02/FL
T3 construct: made in house; host or cells: MMP-2-transfected p2AHT2 cells
T3 sequence (P08253 110-660): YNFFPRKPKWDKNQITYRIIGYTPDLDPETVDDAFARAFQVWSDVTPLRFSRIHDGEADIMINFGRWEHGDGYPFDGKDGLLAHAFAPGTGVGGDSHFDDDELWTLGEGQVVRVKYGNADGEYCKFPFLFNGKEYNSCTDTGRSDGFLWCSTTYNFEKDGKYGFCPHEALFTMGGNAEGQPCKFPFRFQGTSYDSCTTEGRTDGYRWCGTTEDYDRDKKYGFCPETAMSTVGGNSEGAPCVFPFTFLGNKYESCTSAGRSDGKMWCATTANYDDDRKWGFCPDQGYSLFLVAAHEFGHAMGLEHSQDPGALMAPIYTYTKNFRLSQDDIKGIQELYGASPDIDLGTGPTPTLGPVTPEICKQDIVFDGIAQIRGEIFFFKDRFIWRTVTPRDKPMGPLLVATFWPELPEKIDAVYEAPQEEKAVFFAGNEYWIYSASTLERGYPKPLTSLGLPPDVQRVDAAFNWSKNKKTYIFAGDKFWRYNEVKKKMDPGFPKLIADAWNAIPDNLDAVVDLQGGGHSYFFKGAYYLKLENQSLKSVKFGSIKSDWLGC
Experimental: as §1, §2, §3, §4

`COc1cccc(CNC(=O)c2nc3ccc(F)c(OCCC4CCN(C(=O)CO)CC4)c3c(=O)[nH]2)c1` [Example 34, 6-fluoro-5-[2-(1-glycoloylpiperidin-4-yl)ethoxy]-N-(3-methoxybenzyl)-4-oxo-3,4-dihydroquinazoline-2-carboxamide] showed a Ki (Human recombinant MMP-14) of over 10 µM, a Ki (Human recombinant MMP-9) of over 10 µM and a Ki (Human recombinant MMP-2) of 5.65 µM.
